# Reference: ChEMBL document CHEMBL1138766, “Synthesis and biological evaluation of new acinetoferrin homologues for use as iron transport probes in mycobacteria” (2004)
# System: Mycobacterium avium
# Test: Growth index for Mycobacterium avium sub species paratuberculosis was measured relative to mycobactin J
# Type: functional
row,Structure (SMILES),Growth Index
1,CCCCC/C=C/C(=O)N(O)CCCCCCNC(=O)CC(O)(CC(=O)NCCCCCCN(O)C(=O)/C=C/CCCCC)C(=O)O,0.95
2,CCCCCCCCCCCCC/C=C/C(=O)N(O)CCCC[C@H](NC(=O)[C@@H]1CCC(c2ccccc2O)=N1)C(=O)OC(C(C)C)C(C)C(=O)N[C@H]1CCCCN(O)C1=O (stereo partly specified),1
3,CC(=O)N(O)CCCCCNC(=O)CCC(=O)N(O)CCCCCNC(=O)CCC(=O)N(O)CCCCCN [DEFEROXAMINE],1.09
4,CCCCC/C=C/C(=O)N(O)CCCCCNC(=O)CC(O)(CC(=O)NCCCCCN(O)C(=O)/C=C/CCCCC)C(=O)O,0.96
5,CCCCC/C=C/C(=O)N(O)CCCCCCNC(=O)CC1(O)CC(=O)N(CCCCCCN(O)C(=O)/C=C/CCCCC)C1=O (stereo unspecified),1.01
6,CCCCC/C=C/C(=O)N(O)CCCCCNC(=O)CC1(O)CC(=O)N(CCCCCN(O)C(=O)/C=C/CCCCC)C1=O (stereo unspecified),1.17
